Test results published in US11667631B2, “FGFR4 inhibitor, preparation method therefor, and applications thereof” (Jiangsu Hansoh Pharmaceutical Group Co., Ltd., priority 2016, dated 2023).
Like-named read-outs stand apart in the source and are kept apart here.

What was measured:
FGFR4 kinase = FGFR4 kinase (Homo sapiens (Human), UniProt P22455); test: Enzymologic experiment of FGFR4 (TR-FRET); assay type: biochemical; conditions: FGFR4 kinase activity
Procedure: In this experiment, the inhibitory effect of the compounds on FGFR4 kinase activity was tested by a fluorescence resonance energy transfer (TR-FRET) method, and the half maximal inhibitory concentration (IC50) of the compounds on the FGFR4 kinase activity was determined.
(§1) 2) 1˜5 μL of diluted solution in gradient of the compound was added.
(§2) 3) 1˜5 μL of a substrate mixture containing substrate polypeptide with a final concentration of 5˜50 nM and ATP with a final concentration of 10˜200 μM was added.
(§3) 4) The mixture was incubated for 0.5˜3 hours at room temperature.
(§4) 5) 10 μL of EDTA and a test solution comprising labeled antibody were added, and the plate was incubated for 1 hour at room temperature.
(§5) 7) The inhibition rates were calculated according to the fluorescence signal values.

FGFR1 kinase = FGFR1 kinase (Homo sapiens (Human), UniProt P11362); test: Enzymologic experiment of FGFR1 (TR-FRET); assay type: biochemical; conditions: FGFR1 kinase activity
FGFR1 kinase, sequence (P11362 22-822): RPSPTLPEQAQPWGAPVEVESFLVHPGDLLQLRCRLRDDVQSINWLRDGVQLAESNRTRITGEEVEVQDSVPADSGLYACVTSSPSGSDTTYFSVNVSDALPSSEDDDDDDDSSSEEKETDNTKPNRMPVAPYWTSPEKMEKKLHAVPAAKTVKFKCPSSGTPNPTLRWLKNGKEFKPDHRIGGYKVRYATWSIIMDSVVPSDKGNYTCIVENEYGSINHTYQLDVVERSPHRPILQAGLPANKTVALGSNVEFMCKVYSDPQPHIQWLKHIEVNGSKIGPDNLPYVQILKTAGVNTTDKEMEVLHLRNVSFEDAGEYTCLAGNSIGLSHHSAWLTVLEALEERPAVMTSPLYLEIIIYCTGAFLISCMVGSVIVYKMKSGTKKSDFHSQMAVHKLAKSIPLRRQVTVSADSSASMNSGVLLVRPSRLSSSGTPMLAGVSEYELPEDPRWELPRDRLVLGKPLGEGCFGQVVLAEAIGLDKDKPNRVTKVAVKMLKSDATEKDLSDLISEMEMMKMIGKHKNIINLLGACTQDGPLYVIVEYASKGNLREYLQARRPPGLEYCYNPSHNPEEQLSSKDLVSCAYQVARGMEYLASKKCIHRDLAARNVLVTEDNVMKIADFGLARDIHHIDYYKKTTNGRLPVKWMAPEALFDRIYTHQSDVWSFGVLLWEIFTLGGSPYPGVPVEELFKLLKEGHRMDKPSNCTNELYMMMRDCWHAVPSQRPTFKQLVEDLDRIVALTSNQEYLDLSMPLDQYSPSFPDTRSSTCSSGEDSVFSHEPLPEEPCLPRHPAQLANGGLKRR
Procedure: In this experiment, the inhibitory effect of the compounds on FGFR1 kinase activity was tested by a fluorescence resonance energy transfer (TR-FRET) method, and the half maximal inhibitory concentration (IC50) of the compounds on the FGFR1 kinase activity was determined.
1) 1˜5 μL of FGFR1 enzyme solution was added to a 384-well plate, and the final concentration of the enzyme was 0.1˜5 nM.
as §1, §2, §3, §4
6) The fluorescence signal values of each plate were determined by a microplate reader at 665 nm.
as §5
8) The IC50 of the compound was obtained by curve fitting according to the inhibition rates at different concentrations, and the enzymatic activity of the specific example compounds is shown in Table 1.

HuH-7 cells = test: Inhibition of HuH-7 cell proliferation (CellTiter-Glo); assay type: cell-based; conditions: Homo sapiens, read-out: HuH-7 IC50
Procedure: In this experiment, the inhibitory effect of the compounds on HuH-7 cell proliferation was tested by a CellTiter-Glo method, and the half maximal inhibitory concentration (IC50) of the compounds on the activity of cell proliferation was determined.
1) A 96-well cell culture plate was seeded with 50˜100 μL of HuH-7 cell suspension at a density of 1˜5×10^4 cells/ml. The culture plate was incubated in an incubator for 16˜24 hours (37° C., 5% CO2).
(§6) 2) Different concentrations of the test compound in a gradient dilution were added to the cells in the culture plate. The culture plate was incubated in an incubator for 72 hours (37° C., 5% CO2).
3) 50˜100 μL of CellTiter-Glo reagent was added to each well. Then, the culture plate was shaken or left to stand for 5˜30 minutes at room temperature.
(§7) 4) The chemiluminescence signal values of each plate were determined by a microplate reader.
(§8) 5) The inhibition rates were calculated according to the chemiluminescence signal values.
(§9) 6) The IC50 of the compound was obtained by curve fitting according to the inhibition rates at different concentrations, and the cell activity of the specific example compounds is shown in Table 2.

Hep 3B cells = test: Inhibition of Hep 3B cell proliferation (CellTiter-Glo); assay type: cell-based; conditions: Homo sapiens, Hep3B
Procedure: In this experiment, the inhibitory effect of the compounds on Hep 3B cell proliferation was tested by a CellTiter-Glo method, and the half maximal inhibitory concentration (IC50) of the compounds on the activity of cell proliferation was determined.
1) A 96-well cell culture plate was seeded with 50˜100 μL of Hep 3B cell suspension at a density of 1˜5×10^4 cells/ml. The culture plate was incubated in an incubator for 16˜24 hours (37° C., 5% CO2).
as §6
(§10) 3) 50˜100 μL of CellTiter-Glo reagent were added to each well. Then, the culture plate was shaken or left to stand for 5˜30 minutes at room temperature.
as §7, §8

SK-HEP-1 cells = test: Inhibition of SK-HEP-1 cell proliferation (CellTiter-Glo); assay type: cell-based; conditions: Homo sapiens, read-out: SK-HEP-1 IC50
Procedure: In this experiment, the inhibitory effect of the compounds on SK-HEP-1 cell proliferation was tested by a CellTiter-Glo method, and the half maximal inhibitory concentration (IC50) of the compounds on the activity of cell proliferation was determined.
1) A 96-well cell culture plate was seeded with 50˜100 μL of SK-HEP-1 cell suspension at a density of 1˜5×10^4 cells/ml. The culture plate was incubated in an incubator for 16˜24 hours (37° C., 5% CO2).
as §6, §10, §7, §8, §9

[1] = Pharmacokinetic (PK) analysis in rats; assay type: in vivo, Sprague Dawley (SD) rats; conditions: SD rats, single intragastric administration, 5 mg/kg
Procedure: 1) 0.2 ml of intravenous blood was collected and placed in a K2EDTA test tube. The blood was centrifuged at room temperature at the speed of 1000˜3000×g for 5˜20 minutes to isolate the plasma, which was then stored at −80° C.
2) 160 μL of acetonitrile was added to 40 μL of plasma sample for precipitation, and then the mixture was centrifuged at the speed of 500˜2000×g for 5˜20 minutes.
3) 100 μL of treated solution was taken, and the concentration of the test compound was analyzed by LC/MS/MS. The LC/MS/MS analytical instrument was AB Sciex API 4000. • Liquid chromatography analysis: • Condition of Liquid chromatography: Shimadzu LC-20AD pump • Chromatographic column: phenomenex Gemiu 5 um C18 50×4.6 mm • Mobile phase: Solution A is 0.1% formic acid aqueous solution, and Solution B is acetonitrile • Flow rate: 0.8 mL/min • Elution time: 0-3.5 minutes, the eluent was used as follows: […]

[2] = HuH-7 cell proliferation, 72 hours, CellTiter-Glo
[3] = Hep 3B cell proliferation, 72 hours, CellTiter-Glo, read-out: Hep 3B IC50
[4] = SK-HEP1, SK-HEP-1 cell proliferation, 72 hours, CellTiter-Glo

FGFR4 kinase, sequence (P22455 22-802): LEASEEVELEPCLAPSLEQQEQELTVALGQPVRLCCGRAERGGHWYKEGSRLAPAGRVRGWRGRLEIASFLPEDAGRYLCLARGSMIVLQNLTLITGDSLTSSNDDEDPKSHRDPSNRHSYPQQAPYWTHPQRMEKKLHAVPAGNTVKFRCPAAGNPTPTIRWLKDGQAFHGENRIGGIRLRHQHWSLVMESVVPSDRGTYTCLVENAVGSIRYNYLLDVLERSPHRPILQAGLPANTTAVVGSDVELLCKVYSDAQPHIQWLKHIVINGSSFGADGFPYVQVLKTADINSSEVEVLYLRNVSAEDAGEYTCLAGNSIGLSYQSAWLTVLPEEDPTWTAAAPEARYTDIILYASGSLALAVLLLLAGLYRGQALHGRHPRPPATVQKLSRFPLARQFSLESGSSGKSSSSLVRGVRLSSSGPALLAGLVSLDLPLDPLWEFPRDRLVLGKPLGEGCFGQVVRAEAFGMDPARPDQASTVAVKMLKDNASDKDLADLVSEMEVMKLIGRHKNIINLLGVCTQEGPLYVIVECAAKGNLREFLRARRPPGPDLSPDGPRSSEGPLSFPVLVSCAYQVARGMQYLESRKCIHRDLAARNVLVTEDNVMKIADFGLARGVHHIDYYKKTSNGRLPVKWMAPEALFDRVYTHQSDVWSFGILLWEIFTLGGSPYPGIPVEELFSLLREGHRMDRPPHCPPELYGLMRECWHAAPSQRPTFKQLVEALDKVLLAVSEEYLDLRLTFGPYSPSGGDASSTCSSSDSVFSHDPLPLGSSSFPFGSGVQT

Structure (SMILES) | IC50 (FGFR4 kinase) [nM] | IC50 (FGFR1 kinase) [nM] | IC50 (HuH-7 cells; [2]) [nM] | IC50 (Hep 3B cells; [3]) [nM] | IC50 (SK-HEP-1 cells; [4]) [nM] | IC50 (HuH-7 cells; Huh-7, 72 h) [nM] | IC50 (Hep 3B cells; 72 h, read-out: Hep 3B IC50, Hep 3B cell proliferation, 72 hours, CellTiter-Glo) [nM] | Peak Time tmax ([1]; (sampling in hours)) [h] | AUC(0-t) ([1]; Sprague-Dawley, rat, plasma, po, read-out: Area Under Curve AUC0-t) [ng·h/mL] | AUC(0-inf) ([1]; Sprague-Dawley, rat, plasma, po, read-out: Area Under Curve AUC0-∞) [ng·h/mL] | half-life ([1]; Sprague-Dawley, rat, plasma, po, read-out: Half-Time t1/2 (converted)) [h] | MRT ([1]; Sprague-Dawley, rat, plasma, po, read-out: Mean Residence Time MRT) [h] | Cmax ([1]; Sprague-Dawley, rat, plasma, po, read-out: Plasma Concentration Cmax) [ng/mL] | IC50 (SK-HEP-1 cells; SK-HEP1, 72 h) [nM]
N#Cc1cnc(NC(=O)N2CCCc3cc(CN4CCOCC4=O)c(C=O)nc32)cc1NCCN1CCCC1 [Example 2, N-(5-Cyano-4-((2-(pyrrolidin-1-yl)ethyl)amino)pyridin-2-yl)-7-formyl-6-((3-carbonylmorpholino)methyl)-3,4-dihydro-1,8-naphthyridin-1(2H)-carboxamide] | 2.9 | > 10000 | – | – | – | – | – | – | – | – | – | – | – | –
CC1OCCC1Sc1cc(NC(=O)N2CCCc3cc(CN4CCOCC4=O)c(C=O)nc32)ncc1C#N (stereo not shown) [Example 3, N-(5-Cyano-4-((2-methyltetrahydrofuran-3-yl)thio)pyridin-2-yl)-7-formyl-6-((3-carbonylmorpholino)methyl)-3,4-dihydro-1,8-naphthyridin-1(2H)-carboxamide] | 5.4 | > 10000 | 40.9 | 13.1 | > 10000 | – | – | – | – | – | – | – | – | –
COCCNc1cc(NC(=O)N2CCCc3cc(CN4CCCN(C)CC4=O)c(C=O)nc32)ncc1C#N [Example 7, N-(5-Cyano-4-((2-methoxyethyl)amino)pyridin-2-yl)-7-formyl-6-((4-methyl-2-carbonyl-1,4-diazoheptyl-1-yl)methyl)-3,4-dihydro-1,8-naphthyridin-1(2H)-carboxamide] | 0.6 | > 10000 | 10.2 | 1.4 | > 10000 | – | – | – | – | – | – | – | – | –
COCCNc1cc(NC(=O)N2CCCc3cc(CN4C(=O)COCC45CC5)c(C=O)nc32)ncc1C#N [Example 21, N-(5-Cyano-4-((2-methoxyethyl)amino)pyridin-2-yl)-7-formyl-6-((5-carbonyl-7-oxa-4-azaspiro[2.5]octane-4-yl)methyl)-3,4-dihydro-1,8-naphthyridin-1(2H)-carboxamide] | 1.71 | > 10000 | 13.4 | 8.6 | > 10000 | – | – | – | – | – | – | – | – | –
COC[C@H](C)Nc1cc(NC(=O)N2CCCc3cc(CN4CCCCOC4=O)c(C=O)nc32)ncc1C#N [Example 30] | 2.5 | > 10000 | 13.4 | 4.6 | > 10000 | – | – | – | – | – | – | – | – | –
N#Cc1cnc(NC(=O)N2CCCc3cc(CN4CCCCOC4=O)c(C=O)nc32)cc1S[C@H]1CCOC1 [Example 36] | 4.25 | > 10000 | 20.4 | 8 | > 10000 | – | – | – | – | – | – | – | – | –
CO[C@@H]1COCC1Nc1cc(NC(=O)N2CCCc3cc(CN4CCCCOC4=O)c(C=O)nc32)ncc1C#N (stereo partly drawn) [Example 37, N-(5-Cyano-4-(((trans)-4-methoxytetrahydrofuran-3-yl)amino)pyridin-2-yl)-7-formyl-6-((2-carbonyl-1,3-oxazepin-3-yl)methyl)-3,4-dihydro-1,8-naphthyridin-1(2H) -carboxamide] | 1.12 | > 10000 | 4.1 | 2.8 | > 10000 | – | – | – | – | – | – | – | – | –
COCCNc1cc(NC(=O)N2CCCc3cc(CN4C(=O)OCC45CC5)c(C=O)nc32)ncc1C#N [Example 43, N-(5-Cyano-4-((2-methoxyethyl)amino)pyridin-2-yl)-7-formyl-6-((5-carbonyl-6-oxa-4-azaspiro[2.4]heptan-4-yl)methyl)-3,4-dihydro-1,8-naphthyridin-1(2H)-carboxamide] | 4.41 | > 10000 | 8.1 | 8.1 | > 10000 | – | – | – | – | – | – | – | – | –
CC1COC(=O)N1Cc1cc2c(nc1C=O)N(C(=O)Nc1cc(S[C@@H]3CCOC3)c(C#N)cn1)CCC2 (stereo partly drawn) [Example 44, N-(5-Cyano-4-(((R)-tetrahydrofuran-3-yl)thio)pyridin-2-yl)-7-formyl-6-(((S)-4-methyl-2-carbonyloxazolidin-3-yl)methyl)-3,4-dihydro-1,8-naphthyridin-1(2H)-carboxamide] | 6.5 | > 10000 | 35.4 | 11.5 | > 10000 | – | – | – | – | – | – | – | – | –
C[C@H]1COC(=O)N1Cc1cc2c(nc1C=O)N(C(=O)Nc1cc(S[C@H]3CCOC3)c(C#N)cn1)CCC2 [Example 45, N-(5-Cyano-4-(((S)-tetrahydrofuran-3-yl)thio)pyridin-2-yl)-7-formyl-6-(((S)-4-methyl-2-carbonyloxazolidin-3-yl)methyl)-3,4-dihydro-1,8-naphthyridin-1(2H)-carboxamide] | 4.66 | > 10000 | 32.2 | 14.2 | > 10000 | – | – | – | – | – | – | – | – | –
CO[C@H]1COCC1Oc1cc(NC(=O)N2CCCc3cc(CN4C(=O)OC[C@@H]4C)c(C=O)nc32)ncc1C#N (stereo partly drawn) [Example 47, N-(5-Cyano-4-(((3,4)-trans-4-methoxytetrahydrofuran-3-yl)oxy)pyridin-2-yl)-7-formyl-6-(((S)-4-methyl-2-carbonyloxazolidin-3-yl)methyl)-3,4-dihydro-1,8-naphthyridin-1(2H)-carboxamide] | 4.95 | > 10000 | 24.4 | 9.9 | > 10000 | – | – | – | – | – | – | – | – | –
COC[C@@H](C)Oc1cc(NC(=O)N2CCCc3cc(CN4CCOC4=S)c(C=O)nc32)ncc1C#N [Example 48, (R)-N-(5-Cyano-4-((1-methoxypropan-2-yl)oxy)pyridin-2-yl)-7-formyl-6-((2-thiooxazolidin-3-yl)methyl)-3,4-dihydro-1,8-naphthyridin-1(2H)-carboxamide] | 8.48 | > 10000 | 15.6 | 13.1 | > 10000 | – | – | – | – | – | – | – | – | –
CO[C@H]1CCC1Oc1cc(NC(=O)N2CCCc3cc(CN4CCOCC4=O)c(C=O)nc32)ncc1C#N (stereo partly drawn) [Example 62, N-(5-Cyano-4-cis-((1,2)-2-methoxycyclobutoxy)pyridin-2-yl)-7-formyl-6-((3-carbonylmorpholino)methyl)-3,4-dihydro-1,8-naphthyridin-1(2H)-carboxamide] | – | > 10000 | – | – | – | 4.2 | 3.4 | 2 | 4020 | 4060 | 0.85 | 2.98 | 2810 | > 10000
